Experimental data: the NIST ThermoML archive (doi:10.1016/j.jct.2018.08.014)

Columns and labels:
[1] = Crystal; DSC
[2] = molar heat capacity at constant pressure; settings: 101.33 kPa, Liquid, DSC

CCCCCCCC(=O)OCCCC [butyl octanoate]
Settings	Triple point temperature [K]
[1]	230

[2]
Settings	molar heat capacity at constant pressure [J/K/mol]
241 K	387.43
243 K	387.43
245 K	386.6
247 K	386.6
249 K	386.6
251 K	386.6
253 K	386.6
255 K	387.43
257 K	388.26
259 K	387.43
261 K	387.43
263 K	386.6
265 K	386.6
267 K	386.6
269 K	386.6
271 K	386.6
273 K	386.6
275 K	386.6
277 K	386.6
279 K	388.26
281 K	389.1
283 K	390.76
285 K	391.59
287 K	391.59
289 K	393.25
291 K	394.08
293 K	394.92
295 K	395.75
297 K	396.58
298 K	397.41
299 K	397.41
301 K	398.24
303 K	399.07

CCCCCCCCCC(=O)OCC [ethyl decanoate]
Settings	Triple point temperature [K]
[1]	252

[2]
Settings	molar heat capacity at constant pressure [J/K/mol]
263 K	375.79
265 K	375.79
267 K	375.79
269 K	375.79
271 K	375.79
273 K	374.96
275 K	374.13
277 K	374.96
279 K	376.62
281 K	378.29
283 K	379.12
285 K	379.95
287 K	379.95
289 K	380.78
291 K	380.78
293 K	381.61
295 K	382.44
297 K	383.28
298 K	383.28
299 K	384.11
301 K	385.77
303 K	385.77

CCCCCCOC(=O)CCCCC [hexanoic acid, hexyl ester]
Settings	Triple point temperature [K]
[1]	217

[2]
Settings	molar heat capacity at constant pressure [J/K/mol]
227 K	390.76
229 K	387.43
231 K	385.77
233 K	384.94
235 K	384.11
237 K	384.11
239 K	383.28
241 K	383.28
243 K	383.28
245 K	383.28
247 K	383.28
249 K	383.28
251 K	383.28
253 K	383.28
255 K	384.11
257 K	384.94
259 K	384.94
261 K	384.94
263 K	385.77
265 K	385.77
267 K	385.77
269 K	385.77
271 K	385.77
273 K	384.94
275 K	384.94
277 K	385.77
279 K	386.6
281 K	387.43
283 K	389.1
285 K	389.93
287 K	390.76
289 K	392.42
291 K	392.42
293 K	393.25
295 K	394.08
297 K	394.92
298 K	394.92
299 K	394.92
301 K	396.58
303 K	397.41

CCCCCCCCCCC(=O)OC [methyl undecanoate]
Settings	Triple point temperature [K]
[1]	262

[2]
Settings	molar heat capacity at constant pressure [J/K/mol]
273 K	381.61
275 K	381.61
277 K	384.11
279 K	380.78
281 K	381.61
283 K	382.44
285 K	382.44
287 K	385.77
289 K	384.11
291 K	384.11
293 K	384.94
295 K	384.94
297 K	385.77
298 K	389.1
299 K	385.77
301 K	386.6
303 K	389.93

CCCCCCCCOC(=O)CCC [octyl butanoate]
Settings	Triple point temperature [K]
[1]	218

[2]
Settings	molar heat capacity at constant pressure [J/K/mol]
227 K	380.78
229 K	379.12
231 K	379.12
233 K	378.29
235 K	376.62
237 K	376.62
239 K	375.79
241 K	374.96
243 K	374.13
245 K	373.3
247 K	373.3
249 K	372.47
251 K	372.47
253 K	372.47
255 K	372.47
257 K	373.3
259 K	372.47
261 K	373.3
263 K	373.3
265 K	373.3
267 K	374.13
269 K	374.13
271 K	374.13
273 K	373.3
275 K	373.3
277 K	373.3
279 K	374.13
281 K	375.79
283 K	376.62
285 K	377.46
287 K	378.29
289 K	379.12
291 K	379.95
293 K	380.78
295 K	381.61
297 K	383.28
298 K	383.28
299 K	384.11
301 K	385.77
303 K	385.77
